Values quoted from earlier work as cited in patent US8168224B2, “Sodium alginate microsphere vascular embolus containing water-soluble drug and preparation and application thereof” (Beijing Shengyiyao Science & Technology Development Co., …, priority 2007, dated 2012).

Assays:
[1] = test system: human ovary cancer strain 3AO; settings: 3AO cells in vitro, compared with cisplatin (cDDP)
[2] = test system: rabbit Vx2 hepatic transplantation carcinoma; settings: hepatic artery catheter perfusion; dose dependent
[3] = test system: human ovary cancer cell strain SKOV3; settings: As2O3 within normal clinical dosage range; radiation in routine graded dosages
[4] = test system: human liver cancer cell strain HepG2; settings: combination with TNF
K562 and K562/ADM = settings: dosage-time effect
primary liver cancer = settings: 20 mg/d for 5 consecutive days
acute non-APL (ANPL) = settings: versus Ara-C, Homoharringtonine, VCR and DNR

Arsenic trioxide [As2O3]
growth inhibition, apoptosis induction and S phase block compared with cDDP [1]: more effective in inhibiting growth, inducing apoptosis and blocking S phase of 3AO
inhibition of rabbit Vx2 hepatic transplantation carcinoma [2]: significantly effective in treating tumors
radiation enhancement [3]: enhance effect of the radiation therapy
combination effect on inducing apoptosis [4]: synergistic
growth of HUVECs (HUVECs): inhibit growth of HUVECs
angiogenesis (angiogenesis in CAM): inhibit angiogenesis
expression of Bcl-2 protein (K562 and K562/ADM): inhibit expression of Bcl-2 protein of K562 and K562/ADM
side effects (primary liver cancer; 4 courses, local pump administration): No explicit side effects
PR (lesions shrank by 50% plus, no new lesions) (primary liver cancer; 17 patients unsuitable for surgery, after 4 therapeutic courses): 35.2%
overall effectiveness rate (primary liver cancer; 17 patients, after 4 therapeutic courses): 41.1%
cross drug resistance (acute non-APL (ANPL)): free from cross drug resistance with Ara-C, Homoharringtonine and VCR, but partly has cross drug resistance with DNR
